In one experiment the target is human somatostatin receptor subtype 5 (Homo sapiens, UniProt P35346). Put plainly: cAMP assay for SST5R (inhibition of cAMP via human SST5 receptor).
human somatostatin receptor subtype 5, sequence (P35346 whole entry): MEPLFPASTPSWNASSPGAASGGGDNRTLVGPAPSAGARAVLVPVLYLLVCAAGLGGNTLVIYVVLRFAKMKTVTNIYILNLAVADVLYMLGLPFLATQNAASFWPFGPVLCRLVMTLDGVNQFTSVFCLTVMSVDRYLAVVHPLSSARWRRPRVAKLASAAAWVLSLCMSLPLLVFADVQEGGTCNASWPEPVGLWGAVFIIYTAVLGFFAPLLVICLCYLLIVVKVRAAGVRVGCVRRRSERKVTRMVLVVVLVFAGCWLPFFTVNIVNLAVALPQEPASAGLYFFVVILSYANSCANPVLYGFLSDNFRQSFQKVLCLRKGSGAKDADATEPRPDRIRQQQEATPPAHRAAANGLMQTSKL
Settings: not given
(In general: cAMP levels reflect the balance of adenylyl cyclase and phosphodiesterase activity.)
For `Cc1ccnc2nc(-c3cncc(-c4ccc(F)c(C#N)c4)c3N3CCC(C)(N)C3)[nH]c12` (centres unmarked) [Compound 2-119, 5-[4-(3-amino-3-methylpyrrolidin-1-yl)-5-{7-methyl-1H-imidazo[4,5-b]pyridin-2-yl}pyridin-3-yl]-2-fluorobenzonitrile], the EC50 is < 10 nM.

For `Cc1cccc2nc(-c3cncc(-c4cc(F)c(F)c(C(=O)O)c4)c3N3CCC(C)(N)C3)[nH]c12` (centres unmarked) [Compound 2-126, 5-[4-(3-amino-3-methylpyrrolidin-1-yl)-5-(4-methyl-1H-1,3-benzodiazol-2-yl)pyridin-3-yl]-2,3-difluorobenzoic acid], the EC50 was > 1000 nM.

Molecule `Cc1cccc2[nH]c(-c3cncc(-c4cc(F)cc(C#N)c4)c3N3CC[C@H](N)C3)cc12` [Compound 2-129, 3-{4-[(3S)-3-aminopyrrolidin-1-yl]-5-(4-methyl-1H-indol-2-yl)pyridin-3-yl}-5-fluorobenzonitrile] displayed an EC50 of 10 to 100 nM.

`Cc1cc(-c2cncc(-c3nc4cccc(F)c4[nH]3)c2N2CC[C@H](N)C2)cc(N)n1` [Compound 2-130, 4-[(3S)-3-aminopyrrolidin-1-yl]-5-(4-fluoro-1H-1,3-benzodiazol-2-yl)-6′-methyl-[3,4′-bipyridin]-2′-amine] registered an EC50 of 100 to 1000 nM.

Regarding `Cn1c(-c2cncc(-c3ccc(F)c(C#N)c3)c2N2CC[C@H](N)C2)nc2cccc(Cl)c21` [Compound 2-133, 5-{4-[(3S)-3-aminopyrrolidin-1-yl]-5-(7-chloro-1-methyl-1H-1,3-benzodiazol-2-yl)pyridin-3-yl}-2-fluorobenzonitrile], the EC50 was < 10 nM.

With `Cc1cccc2nc(-c3cncc(-c4ccc(F)c(C#N)c4)c3N3CC[C@H](N)C3)n(C)c12` [Compound 2-134, 5-{4-[(3S)-3-aminopyrrolidin-1-yl]-5-(1,7-dimethyl-1H-1,3-benzodiazol-2-yl)pyridin-3-yl}-2-fluorobenzonitrile], the EC50 is < 10 nM.

In turn, `Cc1cccc2nc(-c3cncc(-c4cc(F)cc(C#N)c4)c3N3CC[C@](N)(CO)C3)[nH]c12` [Compound 2-136, 3-{4-[(3R)-3-amino-3-(hydroxymethyl)pyrrolidin-1-yl]-5-(4-methyl-1H-1,3-benzodiazol-2-yl)pyridin-3-yl}-5-fluorobenzonitrile] had an EC50 of 10 to 100 nM.

On to `Cc1cccc2cc(-c3cncc(-c4cc(F)cc(C#N)c4)c3N3CC[C@H](N)C3)[nH]c12` [Compound 2-137, 3-{4[(3S)-3-aminopyrrolidin-1-yl]-5-(7-methyl-1H-indol-2-yl)pyridin-3-yl}-5-fluorobenzonitrile], for which the EC50 lay within 10 to 100 nM.

Take `Cc1cccc2nc(-c3cncc(-c4cccc(C(N)=O)c4F)c3N3CCC(C)(N)C3)[nH]c12` (centres unmarked) [Compound 2-138, 3-[4-(3-amino-3-methylpyrrolidin-1-yl)-5-(4-methyl-1H-1,3-benzodiazol-2-yl)pyridin-3-yl]-2-fluorobenzamide]: the EC50 was < 10 nM.

As to `Cn1c(-c2cncc(-c3ccnc(C#N)c3)c2N2CC[C@](C)(N)C2)nc2c(F)cccc21` [Compound 2-150, 4-[(3S)-3-amino-3-methylpyrrolidin-1-yl]-5-(4-fluoro-1-methyl-1H-1,3-benzodiazol-2-yl)-[3,4′-bipyridine]-2′-carbonitrile], the EC50 was < 10 nM.

On to `Cn1c(-c2cncc(-c3ccnc(C#N)c3)c2N2CC[C@](C)(N)C2)nc2c(Cl)cccc21` [Compound 2-151, 4-[(3S)-3-amino-3-methylpyrrolidin-1-yl]-5-(4-chloro-1-methyl-1H-1,3-benzodiazol-2-yl)-[3,4′-bipyridine]-2′-carbonitrile], for which the EC50 was < 10 nM.

For `Cc1cccc2c1nc(-c1cncc(-c3ccnc(C#N)c3)c1N1CC[C@](C)(N)C1)n2C` [Compound 2-152, 4-[(3S)-3-amino-3-methylpyrrolidin-1-yl]-5-(1,4-dimethyl-1H-1,3-benzodiazol-2-yl)-[3,4′-bipyridine]-2′-carbonitrile], the EC50 was < 10 nM.

Regarding `Cn1c(-c2cncc(-c3cccc(C#N)c3)c2N2CC[C@](C)(N)C2)nc2c(F)cccc21` [Compound 2-153, 3-{4-[(3S)-3-amino-3-methylpyrrolidin-1-yl]-5-(4-fluoro-1-methyl-1H-1,3-benzodiazol-2-yl)pyridin-3-yl}benzonitrile], the EC50 is < 10 nM.

As for `Cc1cccc2[nH]c(-c3cncc(-c4ccnc(C(N)=O)c4)c3N3CC[C@](C)(N)C3)nc12` [Compound 2-156, 4-[(3S)-3-amino-3-methylpyrrolidin-1-yl]-5-(4-methyl-1H-1,3-benzodiazol-2-yl)-[3,4′-bipyridine]-2′-carboxamide], the EC50 is < 10 nM.

In the case of `N#Cc1cc(-c2cncc(-c3nc4cccc(C#N)c4[nH]3)c2N2CC[C@H](N)C2)ccc1F` [Compound 2-158, 2-{4-[(3S)-3-aminopyrrolidin-1-yl]-5-(3-cyano-4-fluorophenyl)pyridin-3-yl}-1H-1,3-benzodiazole-4-carbonitrile], the EC50 was < 10 nM.

With `Cc1nccc2nc(-c3cncc(-c4ccc(F)c(C#N)c4)c3N3CCC(C)(N)C3)[nH]c12` (centres unmarked) [Compound 2-159, 5-[4-(3-amino-3-methylpyrrolidin-1-yl)-5-{4-methyl-3H-imidazo[4,5-c]pyridin-2-yl}pyridin-3-yl]-2-fluorobenzonitrile], the EC50 is < 10 nM.

As for `CC1(N)CCN(c2c(-c3ccnc(C#N)c3)cncc2-c2nc3cccc(C#N)c3[nH]2)C1` (centres unmarked) [Compound 2-160, 4-(3-amino-3-methylpyrrolidin-1-yl)-5-(4-cyano-1H-1,3-benzodiazol-2-yl)-[3,4′-bipyridine]-2′-carbonitrile], the EC50 was < 10 nM.

As for `N#Cc1cc(-c2cncc(-c3nc4cccc(Cl)c4[nH]3)c2N2CC[C@H](N)C2)ccn1` [Compound 2-161, 4-[(3S)-3-aminopyrrolidin-1-yl]-5-(4-chloro-1H-1,3-benzodiazol-2-yl)-[3,4′-bipyridine]-2′-carbonitrile], the EC50 was < 10 nM.

For `C[C@]1(N)CCN(c2c(-c3ccc(F)c(C#N)c3)cncc2-c2nc3ncc(F)cc3[nH]2)C1` [Compound 2-168, 5-{4-[(3S)-3-amino-3-methylpyrrolidin-1-yl]-5-{6-fluoro-1H-imidazo[4,5-b]pyridin-2-yl}pyridin-3-yl}-2-fluorobenzonitrile], the EC50 is < 10 nM.

With `Cc1ccnc2[nH]c(-c3cncc(-c4cc(F)cc(C(N)=O)c4)c3N3CC[C@](C)(N)C3)nc12` [Compound 2-169, 3-{4-[(3S)-3-amino-3-methylpyrrolidin-1-yl]-5-{7-methyl-1H-imidazo[4,5-b]pyridin-2-yl}pyridin-3-yl}-5-fluorobenzamide], the EC50 is < 10 nM.

On to `Cc1cc(C)c2nc(-c3cncc(-c4cccc(C#N)c4)c3N3CC[C@](C)(N)C3)[nH]c2n1` [Compound 2-173, 3-{4-[(3S)-3-amino-3-methylpyrrolidin-1-yl]-5-{5,7-dimethyl-1H-imidazo[4,5-b]pyridin-2-yl}pyridin-3-yl}benzonitrile], for which the EC50 is < 10 nM.

In the case of `Cc1cc(C)c2[nH]c(-c3cncc(-c4ccc(F)c(C#N)c4)c3N3CC[C@](C)(N)C3)nc2n1` [Compound 2-174, 5-{4-[(3S)-3-amino-3-methylpyrrolidin-1-yl]-5-{5,7-dimethyl-1H-imidazo[4,5-b]pyridin-2-yl}pyridin-3-yl}-2-fluorobenzonitrile], the EC50 is < 10 nM.

Regarding `C[C@]1(N)CCN(c2c(-c3ccc(F)c(C#N)c3)cncc2-c2nc3c(C#N)ccnc3[nH]2)C1` [Compound 2-176, 2-{4-[(3S)-3-amino-3-methylpyrrolidin-1-yl]-5-(3-cyano-4-fluorophenyl)pyridin-3-yl}-1H-imidazo[4,5-b]pyridine-7-carbonitrile], the EC50 was < 10 nM.

On to `COc1ccc(-c2cncc(-c3nc4c(C#N)ccnc4[nH]3)c2N2CC[C@](C)(N)C2)cc1C#N` [Compound 2-179, 2-{4-[(3S)-3-mino-3-methylpyrrolidin-1-yl]-5-(3-cyano-4-methoxyphenyl)pyridin-3-yl}-1H-imidazo[4,5-b]pyridine-7-carbonitrile], for which the EC50 lay within 10 to 100 nM.

The same experiment, now with this note: SST5 over SST2, class symbols.
In the case of `Cc1ccnc2nc(-c3cncc(-c4ccc(F)c(C#N)c4)c3N3CCC(C)(N)C3)[nH]c12` (centres unmarked) [Compound 2-119, 5-[4-(3-amino-3-methylpyrrolidin-1-yl)-5-{7-methyl-1H-imidazo[4,5-b]pyridin-2-yl}pyridin-3-yl]-2-fluorobenzonitrile], the “Fold selectivity for SST5 vs SST2” value was “++ (++=100 to 499)”.

The experiment is the same for the next values; noted with them: read-out: SST5 potency; inhibition of cAMP via human SST5 receptor; Table B.
`Cc1ccnc2nc(-c3cncc(-c4ccc(F)c(C#N)c4)c3N3CCC(C)(N)C3)[nH]c12` (centres unmarked) [Compound 2-119, 5-[4-(3-amino-3-methylpyrrolidin-1-yl)-5-{7-methyl-1H-imidazo[4,5-b]pyridin-2-yl}pyridin-3-yl]-2-fluorobenzonitrile]: the EC50 is < 10 nM.

For a further experiment, the target named is T1, human somatostatin receptor subtype 2 (Homo sapiens, UniProt P30874).
T1 construct: expressed in transfected cells
T1 sequence (P30874 whole entry): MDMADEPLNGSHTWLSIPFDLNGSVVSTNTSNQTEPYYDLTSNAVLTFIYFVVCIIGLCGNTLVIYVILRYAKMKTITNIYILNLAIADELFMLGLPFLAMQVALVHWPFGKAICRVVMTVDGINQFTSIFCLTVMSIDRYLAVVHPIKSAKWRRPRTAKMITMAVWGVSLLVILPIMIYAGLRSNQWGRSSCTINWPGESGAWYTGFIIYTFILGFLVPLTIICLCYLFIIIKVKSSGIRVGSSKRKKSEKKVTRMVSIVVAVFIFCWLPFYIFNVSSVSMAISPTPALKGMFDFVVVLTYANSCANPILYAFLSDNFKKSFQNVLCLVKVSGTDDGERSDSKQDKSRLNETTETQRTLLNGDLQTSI
Briefly: cAMP assay for SST2R (inhibition of cAMP via human SST2 receptor). It counts as cell-based. The conditions noted are these: Table B, read-out: SST2 potency. An excerpt: cAMP Assay Protocol for SST2R:
For the molecule `Cc1cc(F)cc(-c2cncc(-c3nc4c(F)cc(F)cc4[nH]3)c2N2CC[C@H](N)C2)c1` (stereo in doubt) [Compound 2-194, 1-[3-(4,6-difluoro-1H-1,3-benzodiazol-2-yl)-5-(3-fluoro-5-methylphenyl)pyridin-4-yl]pyrrolidin-3-amine], the EC50 is 100 to 1000 nM.

For `Cc1cc(F)cc(-c2cncc(-c3nc4cc(F)ccc4[nH]3)c2N2CC(CN)C2)c1` [Compound 1-1, 1-{1-[3-(5-fluoro-1H-1,3-benzodiazol-2-yl)-5-(3-fluoro-5-methylphenyl)pyridin-4-yl]azetidin-3-yl}methanamine], the EC50 was > 1000 nM.

On to `Cc1cc(F)cc(-c2cncc(-c3nc4c(F)cccc4[nH]3)c2N2CC(CN)C2)c1` [Compound 1-2, 1-{1-[3-(4-fluoro-1H-1,3-benzodiazol-2-yl)-5-(3-fluoro-5-methylphenyl)pyridin-4-yl]azetidin-3-yl}methanamine], for which the EC50 is > 1000 nM.

As to `Cc1cc(F)cc(-c2cncc(-c3nc4c(F)c(F)ccc4[nH]3)c2N2CC(CN)C2)c1` [Compound 1-6, 1-{1-[3-(4,5-difluoro-1H-1,3-benzodiazol-2-yl)-5-(3-fluoro-5-methylphenyl)pyridin-4-yl]azetidin-3-yl}methanamine], the EC50 was > 1000 nM.

Turning to `Cc1cc(F)cc(-c2cncc(-c3nc4c(F)cc(F)cc4[nH]3)c2N2CC(C(C)N)C2)c1` (centres unmarked) [Compound 1-42, 1-{1-[3-(4,6-difluoro-1H-1,3-benzodiazol-2-yl)-5-(3-fluoro-5-methylphenyl)pyridin-4-yl]azetidin-3-yl}ethan-1-amine], the EC50 lay within 100 to 1000 nM.

On to `CC(N)C1CN(c2c(-c3cc(F)cc(C#N)c3)cncc2-c2nc3c(F)cc(F)cc3[nH]2)C1` (centres unmarked) [Compound 1-64, 3-{4-[3-(1-aminoethyl)azetidin-1-yl]-5-(4,6-difluoro-1H-1,3-benzodiazol-2-yl)pyridin-3-yl}-5-fluorobenzonitrile], for which the EC50 was > 1000 nM.

Source of the values: US11608335B2, “Somatostatin modulators and uses thereof” (CRINETICS PHARMACEUTICALS, INC., priority 2018, dated 2023).
